Results: patent US4990500A, “Oxirane pseudooligosaccharides, a process for their preparation, their use and pharmaceutical preparations” (Hoechst Aktiengesellschaft, priority 1986, dated 1991)
Where a name gives a salt, the structure may show the parent alone. Values belong to the molecule of their own block, whether it stands above or below them.

How the values were obtained:
[1] = target: T1, α-Amylase from the pig pancreas (Sus scrofa, UniProt P00690); assay: Amylase test (inhibition of α-amylase, soluble starch according to Zulkowski, dinitrosalicylic acid); format: biochemical; conditions: for specific activity, α-amylase inhibitor units (AIU) per mg: 1 AIU = amount inhibiting two amylase units to 50%, 37° C., pH 6.9
T1 construct: from tissue; host or cells: pig pancreas
T1 sequence (P00690 16-511): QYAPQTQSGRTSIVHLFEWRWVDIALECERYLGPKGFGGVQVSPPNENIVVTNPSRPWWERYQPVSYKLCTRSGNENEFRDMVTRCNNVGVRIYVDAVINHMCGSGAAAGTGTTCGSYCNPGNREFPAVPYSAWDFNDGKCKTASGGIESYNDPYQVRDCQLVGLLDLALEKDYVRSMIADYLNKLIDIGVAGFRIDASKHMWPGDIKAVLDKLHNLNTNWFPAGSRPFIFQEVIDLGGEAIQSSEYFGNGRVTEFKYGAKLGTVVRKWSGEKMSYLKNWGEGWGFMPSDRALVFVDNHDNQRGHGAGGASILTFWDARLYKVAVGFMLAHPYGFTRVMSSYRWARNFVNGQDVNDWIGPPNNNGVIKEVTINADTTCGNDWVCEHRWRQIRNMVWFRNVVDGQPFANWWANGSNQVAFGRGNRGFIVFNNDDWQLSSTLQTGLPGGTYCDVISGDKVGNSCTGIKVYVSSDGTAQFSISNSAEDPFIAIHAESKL
Method: (§1) The specific activities are 4×10^4 α-amylase inhibitor units (AIU) per mg and 1×10^4 saccharase inhibitor unit (SIU) per mg respectively for W-46 H, and 1×10^4 AIU per mg and 3×10^4 SIU per mg respectively for the inhibitor W-46 P. The activities were determined in the following tests:
An amylase inhibitor unit (AIU) is defined as the amount of inhibitor which is capable of inhibiting two amylase units (AU) to 50% under the test conditions. According to international agreement, one amylase unit is the amount enzyme which cleaves 1 μequivalent of glucoside bonds in the starch in one minute. The μgram-equivalents of cleaved glucoside bonds are determined photometrically using dinitrosalicylic acid as the μgram-equivalents of reducing sugars. The data are calculated as μmoles of maltose, determined with reference to a maltose calibration line.
The tests are carried out as follows:
α-Amylase from the pig pancreas and the solutions to be tested are preincubated together at 37° C. for 10-20 minutes in 1.0 ml of 20 mM phosphate buffer, pH 6.9+10 mM of NaCl. The enzymatic reaction is initiated according to Zulkowski by adding 1.0 ml of soluble starch (0.25% in the buffer specified). After exactly 10 minutes, the reaction is terminated using 2.0 ml of dinitrosalicylic acid coloring reagent (according to Boehringer Mannheim: BiochemicaInformation II) and the mixture is heated for 5 minutes in a boiling water bath to develop the color. After cooling, the extinction is measured at 546 nm against the blank reagent. 50% inhibition is determined graphically compared to the uninhibited enzyme reaction by means of the probability plot by using various amounts of inhibitor.

[2] = target: T2, saccharase (disaccharidases from the small intestine mucosa) (Homo sapiens, UniProt P14410); assay: Saccharase test (inhibition of saccharase, hexokinase/glucose-6-phosphate dehydrogenase method); format: biochemical; conditions: for specific activity, saccharase inhibitor units (SIU) per mg: 1 SIU = amount inhibiting two saccharase units to 50%
T2 construct: from tissue
Method: as §1
One saccharase inhibitor unit (SIU) is defined as the amount of inhibitor which is capable of inhibiting to 50% two saccharase units (SU) under the test conditions. According to international agreement, one SU is the amount of enzyme which cleaves 1 μequivalent of glycoside bonds in saccharose in one minute. The μgram-equivalents of cleaved glucoside bonds are determined photometrically using the hexokinase/glucose-6-phosphate dehydrogenase method as 2 μgram equivalents. The data are calculated as μmoles of hexoses, determined with reference to a glucose calibration curve.
The tests were carried out according to H. U. Bergmeyer, described in "Methods of Enzymatic Analysis", 3rd edition, Verlag Chemie, Weinheim, 1984, pages 96-103.

experimental animals = assay: Oral administration of high doses to experimental animals (symptoms); format: in vivo; conditions: even high doses
[3] = test system: blood glucose concentration of starch-fed rats; assay: Action on the blood glucose concentration of starch-fed rats; format: in vivo, male Wistar rats; conditions: for Blood glucose: 2 g/kg starch, mean ± SEM, n = 7
Text: (§2) In order to test the pharmacological action of the α-glucosidase inhibitors, unfed, male Wistar rats weighing between 200 and 250 g were given orally an inhibitor W-46 H or W-46 P according to the invention together with 2 g of starch or sucrose per kg of body weight as a suspension in ®Tylose (methylhydroxyethylcellulose).
(§3) In these investigations, the values collated in Tables 1 (action on the blood glucose concentration of starch-fed rats) and 2 (action on the blood glucose concentration of sucrose-fed rats) were determined for inhibitor W-46 H.
(§4) A limiting value of 0.27 mg/kg of rat is calculated from the values given in Table 1 and a limiting value of 1.29 mg/kg of rat from the values given in Table 2 (the limiting value of the active ingredient is taken to mean the amount per kg of experimental animal at whose administration a clear action can still be seen after one hour).

[4] = test system: blood glucose concentration of sucrose-fed rats; assay: Action on the blood glucose concentration of sucrose-fed rats; format: in vivo, male Wistar rats; conditions: for Blood glucose: 2 g/kg sucrose, mean ± SEM, n = 7
Text: as §2, §3, §4

T2 sequence (P14410 whole entry): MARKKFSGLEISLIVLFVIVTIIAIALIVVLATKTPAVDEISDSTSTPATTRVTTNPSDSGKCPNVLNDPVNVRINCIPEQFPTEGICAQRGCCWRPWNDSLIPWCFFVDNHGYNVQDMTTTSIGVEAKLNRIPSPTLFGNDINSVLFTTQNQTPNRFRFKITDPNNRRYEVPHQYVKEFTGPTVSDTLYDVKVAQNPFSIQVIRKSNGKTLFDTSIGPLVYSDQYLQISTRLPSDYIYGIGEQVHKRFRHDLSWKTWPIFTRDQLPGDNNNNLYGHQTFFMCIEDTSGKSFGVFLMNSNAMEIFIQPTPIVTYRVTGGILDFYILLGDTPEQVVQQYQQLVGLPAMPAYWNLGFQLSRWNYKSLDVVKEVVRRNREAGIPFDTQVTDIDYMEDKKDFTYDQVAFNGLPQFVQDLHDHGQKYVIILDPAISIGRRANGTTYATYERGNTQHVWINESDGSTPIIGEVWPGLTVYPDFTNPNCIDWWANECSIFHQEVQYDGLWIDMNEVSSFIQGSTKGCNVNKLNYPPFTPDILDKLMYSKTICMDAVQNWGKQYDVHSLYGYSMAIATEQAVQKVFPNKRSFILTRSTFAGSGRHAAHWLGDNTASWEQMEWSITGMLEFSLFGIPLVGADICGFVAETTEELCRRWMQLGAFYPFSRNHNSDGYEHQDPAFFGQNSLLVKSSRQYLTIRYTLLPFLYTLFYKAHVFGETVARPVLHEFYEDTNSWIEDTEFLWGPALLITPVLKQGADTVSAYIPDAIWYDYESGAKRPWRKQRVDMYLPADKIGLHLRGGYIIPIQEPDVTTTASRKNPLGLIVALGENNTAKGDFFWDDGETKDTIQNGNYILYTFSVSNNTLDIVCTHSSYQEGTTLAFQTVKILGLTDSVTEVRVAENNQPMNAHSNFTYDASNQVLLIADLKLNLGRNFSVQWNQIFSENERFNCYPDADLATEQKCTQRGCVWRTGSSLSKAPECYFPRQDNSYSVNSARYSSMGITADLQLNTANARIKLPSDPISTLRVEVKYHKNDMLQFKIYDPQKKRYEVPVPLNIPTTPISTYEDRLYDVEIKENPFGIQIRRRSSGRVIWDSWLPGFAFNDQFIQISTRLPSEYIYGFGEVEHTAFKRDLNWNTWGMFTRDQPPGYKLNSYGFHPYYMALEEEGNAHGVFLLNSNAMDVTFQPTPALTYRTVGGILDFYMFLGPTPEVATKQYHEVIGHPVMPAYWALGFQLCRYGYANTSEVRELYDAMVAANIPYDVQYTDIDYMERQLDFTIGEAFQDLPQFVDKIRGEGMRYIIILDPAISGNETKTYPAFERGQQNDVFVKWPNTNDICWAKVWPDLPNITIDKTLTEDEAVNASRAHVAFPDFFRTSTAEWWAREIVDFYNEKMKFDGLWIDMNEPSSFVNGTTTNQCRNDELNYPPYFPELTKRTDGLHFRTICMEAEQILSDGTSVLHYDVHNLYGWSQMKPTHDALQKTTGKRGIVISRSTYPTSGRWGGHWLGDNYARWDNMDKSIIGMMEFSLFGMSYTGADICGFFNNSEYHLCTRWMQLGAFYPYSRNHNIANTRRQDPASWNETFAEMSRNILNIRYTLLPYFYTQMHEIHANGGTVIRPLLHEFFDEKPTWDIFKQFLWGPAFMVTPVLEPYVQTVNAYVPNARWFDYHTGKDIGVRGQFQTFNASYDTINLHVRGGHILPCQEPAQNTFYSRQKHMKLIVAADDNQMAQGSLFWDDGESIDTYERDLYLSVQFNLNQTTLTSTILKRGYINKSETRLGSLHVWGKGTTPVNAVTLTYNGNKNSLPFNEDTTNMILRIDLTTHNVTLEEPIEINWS

specific activity, α-amylase inhibitor units (AIU) per mg [1]: 3.9×10^4 AIU/mg
specific activity, saccharase inhibitor units (SIU) per mg [2]: 1×10^4 SIU/mg
Compound: CC1OC(OC2C(CO)OC(O)C(O)C2O)C(O)C(O)C1NC1C(O)C(O)C(OC2OC(CO)C(OC3OC(C)C(NC4C(O)C(O)C(O)C5(CO)OC45)C(O)C3O)C(O)C2O)C2(CO)OC12 (centres unmarked) [W-46 H chloride]

specific activity, α-amylase inhibitor units (AIU) per mg [1]: 3.6×10^4 AIU/mg
specific activity, saccharase inhibitor units (SIU) per mg [2]: 9×10^3 SIU/mg
Compound: CC1OC(OC2C(CO)OC(O)C(O)C2O)C(O)C(O)C1NC1C(O)C(O)C(OC2OC(CO)C(OC3OC(C)C(NC4C(O)C(O)C(O)C5(CO)OC45)C(O)C3O)C(O)C2O)C2(CO)OC12 (centres unmarked) [W-46 H glucuronate]

specific activity (α-amylase inhibitor units) ([1]; sulfate, printed without per mg): 3.8×10^4 AIU
specific activity, saccharase inhibitor units (SIU) per mg [2]: 9.6×10^3 SIU/mg
Compound: CC1OC(OC2C(CO)OC(O)C(O)C2O)C(O)C(O)C1NC1C(O)C(O)C(OC2OC(CO)C(OC3OC(C)C(NC4C(O)C(O)C(O)C5(CO)OC45)C(O)C3O)C(O)C2O)C2(CO)OC12 (centres unmarked) [W-46 H sulfate]

inhibition of the α-amylase from the pancreas (in words) [1]: strongly inhibit
specific activity, α-amylase inhibitor units (AIU) per mg [1]: 4×10^4 AIU/mg
specific activity, α-amylase inhibitor units (AIU) per mg ([1]; listed as W-46 H (free base)): 4×10^4 AIU/mg
striking symptoms after oral administration (experimental animals): not possible to detect striking symptoms
inhibition of the disaccharidases from the small intestine mucosa, in particular the saccharase (in words) [2]: strongly inhibit
specific activity, saccharase inhibitor units (SIU) per mg [2]: 1×10^4 SIU/mg
specific activity, saccharase inhibitor units (SIU) per mg ([2]; listed as W-46 H (free base)): 1×10^4 SIU/mg
Compound: CC1OC(OC2C(CO)OC(O)C(O)C2O)C(O)C(O)C1NC1C(O)C(O)C(OC2OC(CO)C(OC3OC(C)C(NC4C(O)C(O)C(O)C5(CO)OC45)C(O)C3O)C(O)C2O)C2(CO)OC12 (centres unmarked) [W-46 H]
minimal effective dose ([3]; Rattus norvegicus, po, 1 h, starch-fed rats, p.o., calculated from Table 1, read-out: limiting value (amount per kg at whose administration a clear action can still be seen after one hour)): 0.27 mg/kg
Blood glucose ([3]; p.o. dose 0.3 mg/kg, 0 hours): 3.77 ± 0.09 mmol/L
Blood glucose ([3]; p.o. dose 0.3 mg/kg, 0.5 hours): 5.53 ± 0.17 mmol/L
Blood glucose ([3]; p.o. dose 0.3 mg/kg, 1 hour): 5.59 ± 0.06 mmol/L
Blood glucose ([3]; p.o. dose 0.3 mg/kg, 2 hours): 5.67 ± 0.13 mmol/L
Blood glucose ([3]; p.o. dose 0.3 mg/kg, 3 hours): 4.86 ± 0.18 mmol/L
Blood glucose ([3]; p.o. dose 0.3 mg/kg, 5 hours): 4.39 ± 0.13 mmol/L
Blood glucose ([3]; p.o. dose 1.0 mg/kg, 0 hours): 3.93 ± 0.10 mmol/L
Blood glucose ([3]; p.o. dose 1.0 mg/kg, 0.5 hours): 5.04 ± 0.08 mmol/L
Blood glucose ([3]; p.o. dose 1.0 mg/kg, 1 hour): 5.07 ± 0.09 mmol/L
Blood glucose ([3]; p.o. dose 1.0 mg/kg, 2 hours): 4.99 ± 0.14 mmol/L
Blood glucose ([3]; p.o. dose 1.0 mg/kg, 3 hours): 4.57 ± 0.10 mmol/L
Blood glucose ([3]; p.o. dose 1.0 mg/kg, 5 hours): 4.13 ± 0.08 mmol/L
minimal effective dose ([4]; Rattus norvegicus, po, 1 h, sucrose-fed rats, p.o., calculated from Table 2, read-out: limiting value (amount per kg at whose administration a clear action can still be seen after one hour)): 1.29 mg/kg
Blood glucose ([4]; p.o. dose 1 mg/kg, 0 minutes): 3.99 ± 0.10 mmol/1
Blood glucose ([4]; p.o. dose 1 mg/kg, 15 minutes): 6.07 ± 0.28 mmol/1
Blood glucose ([4]; p.o. dose 1 mg/kg, 30 minutes): 6.01 ± 0.22 mmol/1
Blood glucose ([4]; p.o. dose 1 mg/kg, 60 minutes): 6.34 ± 0.14 mmol/1
Blood glucose ([4]; p.o. dose 1 mg/kg, 120 minutes): 5.45 ± 0.13 mmol/1
Blood glucose ([4]; p.o. dose 1 mg/kg, 240 minutes): 4.57 ± 0.07 mmol/1
Blood glucose ([4]; p.o. dose 3 mg/kg, 0 minutes): 3.94 ± 0.14 mmol/1
Blood glucose ([4]; p.o. dose 3 mg/kg, 15 minutes): 5.71 ± 0.23 mmol/1
Blood glucose ([4]; p.o. dose 3 mg/kg, 30 minutes): 5.53 ± 0.19 mmol/1
Blood glucose ([4]; p.o. dose 3 mg/kg, 60 minutes): 5.47 ± 0.15 mmol/1
Blood glucose ([4]; p.o. dose 3 mg/kg, 120 minutes): 5.20 ± 0.16 mmol/1
Blood glucose ([4]; p.o. dose 3 mg/kg, 240 minutes): 4.83 ± 0.15 mmol/1
Blood glucose ([4]; p.o. dose 10 mg/kg, 0 minutes): 4.01 ± 0.15 mmol/1
Blood glucose ([4]; p.o. dose 10 mg/kg, 15 minutes): 5.06 ± 0.20 mmol/1
Blood glucose ([4]; p.o. dose 10 mg/kg, 30 minutes): 5.11 ± 0.10 mmol/1
Blood glucose ([4]; p.o. dose 10 mg/kg, 60 minutes): 4.82 ± 0.09 mmol/1
Blood glucose ([4]; p.o. dose 10 mg/kg, 120 minutes): 4.50 ± 0.11 mmol/1
Blood glucose ([4]; p.o. dose 10 mg/kg, 240 minutes): 4.29 ± 0.22 mmol/1

inhibition of the α-amylase from the pancreas (in words) [1]: strongly inhibit
specific activity, α-amylase inhibitor units (AIU) per mg [1]: 1×10^4 AIU/mg
striking symptoms after oral administration (experimental animals): not possible to detect striking symptoms
inhibition of the disaccharidases from the small intestine mucosa, in particular the saccharase (in words) [2]: strongly inhibit
specific activity, saccharase inhibitor units (SIU) per mg [2]: 3×10^4 SIU/mg
Compound: CC1OC(O)C(O)C(O)C1NC1C(O)C(O)C(OC2OC(CO)C(OC3OC(C)C(NC4C(O)C(O)C(O)C5(CO)OC45)C(O)C3O)C(O)C2O)C2(CO)OC12 (centres unmarked) [W-46 P]
